Results: patent publication US8993515B2, “Peptidomimetics comprising N-amino cyclic urea residues and uses thereof” (Valorisation-Recherche, Limited Partnership, priority 2012, dated 2015)
Each block holds one compound with its values, some of them ahead of it. Residues, ends and D or L forms follow the SMILES beside them.

Legend:
[1] = system: NO production induced by TLR-2 agonist R-FSL-1 in J774 cells; assay: Nitrite (NO) production induced by TLR-2 agonist R-FSL-1 in J774 cells; assay type: cell-based; conditions: 10^−6 M, 2 hr pre-exposure; R-FSL-1 300 ng/mL 17 hr
Experimental: J774 cells (ATCC passage 10 to 15) were cultured (2×10^5 cells/ml) in 24-well plates (Costar 3524 NY) in DMEM supplemented with FBS (10%).Three hours after plating, cell culture medium was replaced with 0.5 mL of the same medium containing 10^−6M of imidazolones derivatives for 2 hr pretreatment. Cells were then exposed to R-FSL1 (300 ng/ml) for 17 hr at 37° C. Cell culture media were collected and aliquots (10 μL) were mixed with 10 μL of 2,3 diaminonapthalene reagent (0.05 mg/mL in HCl 0.62M) for nitrite levels determination by fluorescence (λexc 365 nm and λem 430 nm) (Misko et al. (1993) Anal Biochem, 214, 11-16).

human TF-1 cells = assay: IL-1β-induced thymocyte (TF-1) proliferation, CyQUANT NF dye; assay type: cell-based; conditions: peptide 1 μM; human IL-1β 25 ng/mL; 48 h
Experimental: Immune cell proliferation was assessed by DNA intercalation of CyQUANT NF® fluorescent dye (Invitrogen, Carlsbad, Calif., USA). Essentially, human TF-1 cells (CRL-2003, American Type Culture Collection) were cultured in complete RPMI 1640 (WISENT Inc., Montréal, Quebec, Canada) supplemented with human GM-CSF (2 ng/ml, PeptroTech, Rocky Hill, N.J., USA). Cells (passage 5 and at least 85% viable, as verified by trypan blue dying) were reincorporated into RPMI 1640 medium deprived of phenol red (Gibco Invitrogen®, Carlsbad, Calif., USA) and of growth factors [i.e. fetal bovine serum (FBS) and GM-CSF] for 18 h and split (5×10^3 cells in 200 μL/well) into 96-well non-adherent flat bottom culture plates (Sarstedt®, Nümbrecht, Germany). Following 15 min pre-incubation with peptide or peptidomimetic (1 μM), the cells were treated with human IL-1β (25 ng/mL, PeproTech®, Rocky Hill, N.J., USA) and re-incubated. After 48 h, the cells were centrifuged for 7 min at 300 g, reincorporated into Hank's Buffered Salt Solution (1×HBSS, 50 μL/well, Gibco Invitrogen®, Carlsbad, Calif., USA) and transferred into a 96-well polystyrene black plate (Corning Incorporated, Corning, N.Y., USA). An additional 50 μL solution made of CyQUANT NF® dye (component A, 1×) and CyQUANT NF™ delivery agent (component B, 1×) in 1×HBSS was added to the cells in each well, which were covered with aluminum foil and incubated for 45 min. Fluorescence intensity was measured using a microplate reader (Perkin Elmer Wallac Envision® 2104; Perkin Elmer®, California, USA) with excitation at 485 nm and emission detection at 530 nm (FITC 485 and FITC 531 filters, respectively). Hexaplicate experiments were repeated three times and results were analyzed by one-way analysis of variance (ANOVA) factoring for treatments, and data are presented as mean±standard error of the mean (SEM).

[2] = target: T1, recombinant soluble His-tagged CD36 (Homo sapiens, UniProt P16671); assay: SPR spectroscopy binding to CD36; conditions: for SPR ΔλSPR (nm): SPR response on CD36 functionalized surface; for Kd: SPR response for ligand 100 nM to 30 μM fitted to Langmuir isotherm
T1 construct: recombinant soluble His-tagged CD36 functionalized surface
T1 sequence (P16671 30-439 limits assumed): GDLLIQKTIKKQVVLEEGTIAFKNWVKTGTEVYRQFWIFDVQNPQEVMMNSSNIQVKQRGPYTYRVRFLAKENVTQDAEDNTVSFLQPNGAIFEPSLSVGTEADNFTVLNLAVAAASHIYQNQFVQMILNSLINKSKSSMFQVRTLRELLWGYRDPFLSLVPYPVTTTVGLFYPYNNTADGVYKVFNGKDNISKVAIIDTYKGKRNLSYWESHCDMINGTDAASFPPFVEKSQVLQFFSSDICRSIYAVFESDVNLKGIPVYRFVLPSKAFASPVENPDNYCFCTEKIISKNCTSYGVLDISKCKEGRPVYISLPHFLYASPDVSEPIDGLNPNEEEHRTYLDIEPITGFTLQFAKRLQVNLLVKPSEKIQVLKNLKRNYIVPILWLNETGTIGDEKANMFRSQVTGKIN
Experimental: The affinity of the small peptide ligand binding to a recombinant soluble His-tagged CD36 functionalized surface was screened by SPR sensing as previously described (Bolduc, O. R.; Lambert-Lanteigne, P.; Colin, D. Y.; Zhao, S. S.; Proulx, C.; Boeglin, D.; Lubell, W. D.; Pelletier, J. N.; Féthière, J.; Ong, H.; Masson, J.-F. Analyst. 2011, 136, 3142-3148). Briefly, the SPR sensors were prepared by immobilizing the His-tagged CD36 to 3-mercaptopropionyl-leucinyl-histidinyl-aspartyl-leucinyl-histidinyl-aspartic acid (3-Mpa-LHDLHD) with Nα,Nα-bis(carboxymethyl)-L-lysine at the C-terminus, a modified peptide monolayer competent to bind His-tagged biomolecules. A calibration curve of the SPR response for ligand concentrations ranging from 100 nM to 30 μM was fitted to the Langmuir isotherm (Equation 1) to determine K (K=1/Kd) for the CD36-ligand system. ΔλSPR=(K[ligand])ΔλSPRmax(1+K[ligand])^−1 (1)

[3] = system: MAP kinase JNK phosphorylation induced by POVPC in RAW 264.7 murine macrophage cells; assay: JNK assay: POVPC-induced JNK phosphorylation in RAW 264.7 macrophages; assay type: cell-based; conditions: for EC50: 2 h pre-treatment 10^−9 to 10^−6 M, then 10 μg/mL POVPC 30 min, phospho-JNK/total-JNK ratio, read-out: JNK-kinase cellular assay EC50; for inhibitory activity on MAP kinase JNK phosphorylation relative to [azaTyr^4]GHRP-6, in words: POVPC-stimulated RAW 264.7 cells
Experimental: RAW264.7 murine macrophage cells (American Type Culture Collection, Manassas, Va.) pre-treated with N-amino-imidazolin-2-one peptide for 2 h at concentration varying from 10^−9 to 10^−6 M were stimulated with 10 μg/mL POVPC (Cayman chemical, Ann Arbor, Mich.) for 30 min at 37° C. Cells were lysed on ice and centrifuged at 12,000×g. Aliquots of the resulting supernatant (30 μg of protein) were analyzed on SDS-PAGE and electrotransferred on nitrocellulose membrane. The revelation was performed by incubating the membrane with primary antibody against phospho-JNK or total-JNK (Cell signalling, Pickering, Canada) (1:500) overnight and with secondary HRP-conjugated goat anti-rabbit IgG antibody (Jackson Immunoresearch Laboratories Inc., West Grove, Pa.) (1:10,000) for 1 h. Membrane was visualized by chemiluminescence and intensity of bands was measured with Image Quant software (Molecular Dynamics, Sunnyvale, Calif.). The ratio of phospho-JNK/total-JNK was used to determine the phosphorylation state of JNK modulated by the tested peptide.
RAW 264.7 murine macrophage cells were seeded at 2×10^6 cells/well in a 6-well plate and starved in serum-free media overnight at 37° C. Cells were first pre-treated with the N-amino-imidazolin-2one peptide mimic at concentrations ranging from 10^−9 to 10^−6 M for 2 h and then stimulated with 10 μg/mL POVPC (Cayman chemical, Ann Arbor, Mich.) for 30 min at 37° C. Medium was then removed and cell plates were immediately frozen at −80° C. Cells were then scrapped into 100 μl of RIPA (50 mM Tris-HCl pH 7.5, 150 mM NaCl, 1% Triton X™-100, 0.1% SDS, 25 mM NaF) containing 1 mM PMSF and 1 mM Na3VO4, and incubated on ice for 30 min. The soluble fractions were isolated by centrifugation at 12,000×g for 30 min. The supernatant was collected and proteins were assayed with BCA reagent. Aliquots ([…]) were analyzed on 10% SDS-PAGE and electrotransferred on nitrocellulose membrane. Membrane was blocked with 5% BSA in TBS-T and incubated overnight with primary antibody against phospho-JNK or total-JNK (1:500) (Cell signalling, Pickering, Canada) in 5% BSA TBS-T. The membranes were then washed 5 times with TBS-T and incubated with secondary HRP-conjugated goat anti-rabbit IgG antibody (1:10,000) in 5% BSA TBS-T for 1 h at room temperature. The reaction was visualized by chemiluminescence using SuperSignal™ West Dura (Thermo scientific, Rockford, Ill.) and signals analyzed with Chemilmager™ 5500 (Alpha Innotech, San Leandro, Calif.). The intensity of each band was measured by densitometry using Image Quant™ software (Molecular Dynamics, Sunnyvale, Calif.) and the phosphorylation state was determined from the intensity ratio of phospho-JNK/total-JNK. To determine IC50 of inhibition curves, intensity ratio data were plotted using Prism™ 4 software (GraphPad, La Jolla, Calif.).

Compound: HAlC-2MeDTrp-DLys-Trp-DPhe-Lys-NH2 [EP80317, reference compound]
- effect on nitrite/NO production induced by R-FSL-1, in words [1]: negatively modulated nitrite production

Compound: CC(C)C[C@@H](NC(=O)[C@@H](CCC(=O)O)NC(=O)[C@@H](C(C)C)N1CC=CCN(NC(=O)[C@@H](Cc2ccc(O)cc2)NC(=O)[C@H](N)CCCNC(=N)N)C1=O)C(=O)N[C@H](C)C(N)=O [[Nad^3]-101.10, D-Arg-D-Tyr-Nad-D-Val-D-Glu-D-Leu-D-Ala-NH2] (HELM PEPTIDE1{[dR].[dY].[CC(C)[C@H](C(=O)[*:2])N1CC=CCN(N[*:1])C1=O].[dE].[dL].[dA].[am]}$$$$V2.0)
- exacerbated proliferation over the level of exogenous IL-1β (human TF-1 cells): 53%

Compound: His-D-Trp-Ala-(N-amino-4-methyl-imidazolin-2-one)-D-Phe-Lys-NH2 [YGR 401-2]
- effect on nitrite/NO production induced by R-FSL-1, in words [1]: comparable to that of EP80317

Compound: Cc1c(-c2ccccc2)n(NC(=O)[C@H](C)NC(=O)[C@@H](Cc2c[nH]c3ccccc23)NC(=O)[C@@H](N)Cc2cnc[nH]2)c(=O)n1[C@@H](Cc1ccccc1)C(=O)N[C@@H](CCCCN)C(N)=O [DND B2-109, His-D-Trp-Ala-(N-amino-4-methyl-5-phenyl-imidazol-2-one)-L-Phe-Lys-NH2]
- effect on nitrite/NO production induced by R-FSL-1, in words [1]: comparable to that of EP80317

Compound: C[C@H](NC(=O)[C@@H](Cc1c[nH]c2ccccc12)NC(=O)[C@@H](N)Cc1c[nH]cn1)C(=O)NN(Cc1ccc(O)cc1)C(=O)N[C@H](Cc1ccccc1)C(=O)N[C@@H](CCCCN)C(N)=O [[azaTyr^4]GHRP-6, His-D-Trp-Ala-AzaTyr-D-Phe-Lys-NH2, reference compound] (HELM PEPTIDE1{H.[dW].A.[O=C(N(Cc1ccc(O)cc1)N[*:1])[*:2]].[dF].K.[am]}$$$$V2.0)
- SPR ΔλSPR (nm) [2]: 1.8 nm
- EC50 [3]: 0.214 µM

Compound: His-azaPheAla-Trp-DPhe-Ala-NH2 [CP-1A(i), reference compound]
- effect on nitrite/NO production induced by R-FSL-1, in words [1]: did not modulate NO production

Compound: C[C@H](NC(=O)[C@@H](Cc1c[nH]c2ccccc12)NC(=O)[C@@H](N)Cc1cnc[nH]1)C(=O)NN(Cc1ccc(O)cc1)C(=O)N[C@H](Cc1ccccc1)C(=O)N[C@@H](CCCCN)C(N)=O [[azaTyr^4]GHRP-6, His-D-Trp-Ala-AzaTyr-D-Phe-Lys-NH2, reference compound] (HELM PEPTIDE1{H.[dW].A.[O=C(N(Cc1ccc(O)cc1)N[*:1])[*:2]].[dF].K.[am]}$$$$V2.0)
- Kd [2]: 5 µM

Compound: Cc1ccc(-c2c(C)n(C(Cc3ccccc3)C(=O)N[C@@H](CCCCN)C(N)=O)c(=O)n2NC(=O)[C@H](C)NC(=O)[C@@H](Cc2c[nH]c3ccccc23)NC(=O)[C@@H](N)Cc2cnc[nH]2)cc1 (mixture of isomers) [DNDB3-03, His-D-Trp-Ala-(N-amino-4-methyl-5-p-toluoyl-imidazol-2-one)-DL-Phe-Lys-NH2]
- effect on nitrite/NO production induced by R-FSL-1, in words [1]: comparable to that of EP80317

Compound: His-D-Trp-Ala-(N-amino-4-methyl-imidazolin-2-one)-L-Phe-Lys-NH2 [YGR401-1]
- effect on nitrite/NO production induced by R-FSL-1, in words [1]: comparable to that of EP80317

- Kd [2]: 4.9 µM
- SPR ΔλSPR (nm) [2]: 1.1 nm
Compound: Cc1cn(NC(=O)[C@H](C)NC(=O)[C@@H](Cc2c[nH]c3ccccc23)NC(=O)[C@@H](N)Cc2c[nH]cn2)c(=O)n1C(Cc1ccccc1)C(=O)N[C@@H](CCCCN)C(N)=O (stereo partly drawn) [31a, His-D-Trp-Ala-(N-amino-4-methyl-imidazolin-2-one)-D-Phe-Lys-NH2]
- EC50 [3]: 0.0554 µM
- inhibitory activity on MAP kinase JNK phosphorylation relative to [azaTyr^4]GHRP-6, in words [3]: increased inhibitory activity

Compound: Cc1c(-c2ccccc2)n(NC(=O)[C@H](C)NC(=O)[C@@H](Cc2c[nH]c3ccccc23)NC(=O)[C@@H](N)Cc2cnc[nH]2)c(=O)n1C(Cc1ccccc1)C(=O)N[C@@H](CCCCN)C(N)=O (mixture of isomers) [DNDB3-01, His-D-Trp-Ala-(N-amino-4-methyl-5-phenyl-imidazolin-2-one)-DL-Phe-Lys-NH2]
- effect on nitrite/NO production induced by R-FSL-1, in words [1]: comparable to that of EP80317

Compound: CC(C)C[C@@H](NC(=O)[C@@H](CCC(=O)O)NC(=O)[C@@H](C(C)C)N1CCCN(NC(=O)[C@@H](Cc2ccc(O)cc2)NC(=O)[C@H](N)CCCNC(=N)N)C1=O)C(=O)N[C@H](C)C(N)=O [[Nap^3]-101.10, D-Arg-D-Tyr-Nap-D-Val-D-Glu-D-Leu-D-Ala-NH2] (HELM PEPTIDE1{[dR].[dY].[CC(C)[C@H](C(=O)[*:2])N1CCCN(N[*:1])C1=O].[dE].[dL].[dA].[am]}$$$$V2.0)
- diminished IL-1β-induced proliferation (human TF-1 cells): 41%

- affinity for the CD36 receptor relative to [azaTyr^4]GHRP-6, in words ([2]; SPR): comparable affinity
- SPR ΔλSPR (nm) [2]: 1.6 nm
Compound: C[C@H](NC(=O)[C@@H](Cc1c[nH]c2ccccc12)NC(=O)[C@@H](N)Cc1c[nH]cn1)C(=O)Nn1cc(Cc2ccccc2)n([C@H](Cc2ccccc2)C(=O)N[C@@H](CCCCN)C(N)=O)c1=O [31b, His-D-Trp-Ala-(N-amino-4-benzyl-imidazolin-2-one)-D-Phe-Lys-NH2]
- EC50 [3]: > 10 µM
- inhibitory activity on MAP kinase JNK phosphorylation relative to [azaTyr^4]GHRP-6, in words [3]: relatively lower inhibitory activity
